Patent US7897593B2, “HIV integrase inhibitors” (priority 2006, dated 2011)

Tests used:
[1] = system: recombinant NL-Rluc virus; experiment: Inhibition of HIV replication; type: cell-based; conditions: Human immunodeficiency virus 1, read-out: Antiviral Activity, NL-RLuc virus; three serum conditions described, the one tabulated is not stated
[2] = biological target: T1, HIV-integrase (Human immunodeficiency virus type 1 group M subtype B, UniProt P12497); experiment: HIV-Integrase Inhibition Activity (SPA strand transfer assay); type: biochemical; conditions: recombinant integrase, SPA beads, P33 labeled target DNA
T1 construct: Recombinant integrase (0.26 ng) was incubated with the beads
Protocol: HIV-Integrase InhibitionActivity. To evaluate in-vitro activity against HIV-integrase, 5 pmole of biotin labeled substrate DNA was bound to 100 μg of Streptavidin coated PVT SPA beads (Amersham Pharmacia Biotech). Recombinant integrase (0.26 ng) was incubated with the beads for 90 min at 37° C. Unbound enzyme was removed by washing the complex followed by addition of inhibitors and 0.1 fmol of P33 labeled target DNA. The reaction was stopped by adding EDTA to a final concentration of 10 mM. Samples were counted in TopCountNXT (Packard) and the CPM was used as a measure of integration. The reaction condition was as described in A. Engelman and R. Craigie, J. Virol 69, 5908-5911 (1995). The sequences of substrate and target DNA were described in Nucleic Acid Research 22, 1121-1122 (1994). Activity equal to A refers to a compound having IC50=0.001 to 0.01 μM B=0.01-0.1, and C≧0.1 μM respectively.

Row | Compound | EC50 [1] [nM] | IC50 [2] [nM]
1 | O=C(NCc1ccc(F)cc1)c1nc2n(c(=O)c1O)CCCCC21CCN(C(=O)OCc2ccccc2)CC1 [Example 56] | 10 to 100 | 10 to 100
2 | O=C(NCc1ccc(F)cc1)c1nc2n(c(=O)c1O)CCOC21CCN(C(=O)c2ccccc2)CC1 [Example 10] | 1 to 10 | 10 to 100
3 | Cc1ncn(-c2cc(F)ccc2CNC(=O)c2nc3n(c(=O)c2O)CCOC32CCN(S(=O)(=O)c3cc(F)ccc3C)CC2)n1 [Example 20] | 1 to 10 | 1 to 10
4 | O=C(NCc1ccc(F)cc1)c1nc2n(c(=O)c1O)CCOCC21CCN(C(=O)OCc2ccccc2)CC1 [Example 54] | 10 to 100 | 10 to 100
5 | O=C(NCc1ccc(F)cc1)c1nc2n(c(=O)c1O)CCOC21CCN(C(=O)OCc2ccccc2)CC1 [Example 22] | 1 to 10 | 1 to 10
6 | Cc1ccc(S(=O)(=O)N2CCC3(CC2)OCCn2c3nc(C(=O)NC(C)c3ccc(F)cc3)c(O)c2=O)cc1 (stereo not shown) [Example 13] | 10 to 100 | 10 to 100
7 | CN(C)S(=O)(=O)N1CCC2(CC1)OCCn1c2nc(C(=O)NCc2ccc(F)cc2)c(O)c1=O [Example 2] | 1 to 10 | 1 to 10
8 | CS(=O)(=O)N1CCC2(CC1)OCCn1c2nc(C(=O)NCc2ccc(F)cc2)c(O)c1=O [Example 8] | 1 to 10 | 1 to 10
9 | CN(C)C(=O)N1CCC2(CC1)OCCn1c2nc(C(=O)NCc2ccc(F)cc2)c(O)c1=O [Example 6] | 1 to 10 | 1 to 10
10 | Cc1ccc(S(=O)(=O)N2CCC3(CC2)OCCn2c3nc(C(=O)NCc3ccc(F)cc3-n3cnc(C)n3)c(O)c2=O)cc1 [Example 15] | 1 to 10 | 10 to 100
11 | Cc1ccc(S(=O)(=O)N2CCC3(CC2)OCCn2c3nc(C(=O)NCc3ccc(F)cc3S(=O)(=O)N3CCOCC3)c(O)c2=O)cc1 [Example 14] | 1 to 10 | 10 to 100
12 | Cc1ncnn1-c1cc(F)ccc1CNC(=O)c1nc2n(c(=O)c1O)CCOC21CCN(C(=O)OCc2ccccc2)C1 (stereo not shown) [Example 37, Benzyl 2-(4-fluoro-2-(5-methyl-1H-1,2,4-triazol-1-yl)benzylcarbamoyl)-3-hydroxy-4-oxo-6,7-dihydro-4H-spiro[pyrimido[2,1-c][1,4]oxazine-9,3′-pyrrolidine]-1′-carboxylate] | 10 to 100 | 10 to 100
13 | CCOC(=O)N1CCC2(CC1)OCCn1c2nc(C(=O)NCc2ccc(F)cc2)c(O)c1=O [Example 31, Ethyl 2′-(4-fluorobenzylcarbamoyl)-3′-hydroxy-4′-oxo-6′,7′-dihydro-4′H-spiro[piperidine-4,9′-pyrimido[2,1-c][1,4]oxazine]-1-carboxylate] | 1 to 10 | 1 to 10
14 | Cc1ncnn1-c1cc(F)ccc1CNC(=O)c1nc2n(c(=O)c1O)CCOC21CCN(C(=O)C(=O)N(C)C)CC1 [Example 27, 1-(2-(Dimethylamino)-2-oxoacetyl)-N-(4-fluoro-2-(5-methyl-1H-1,2,4-triazol-1-yl)benzyl)-3′-hydroxy-4′-oxo-6′,7′-dihydro-4′H-spiro[piperidine-4,9′-pyrimido[2,1-c][1,4]oxazine]-2′-carboxamide] | > 100 | 10 to 100
15 | Cc1ccc(S(=O)(=O)N2CCC3(CC2)OCCn2c3nc(C(=O)NCc3ccc(F)cc3-n3nc(C)nc3C)c(O)c2=O)cc1 [Example 17] | 1 to 10 | 10 to 100
16 | CCOC(=O)N1CCC2(CC1)OCCn1c2nc(C(=O)NCc2ccc(F)cc2-n2cnc(C)n2)c(O)c1=O [Example 33, Ethyl 2′-(4-fluoro-2-(3-methyl-1H-1,2,4-triazol-1-yl)benzylcarbamoyl)-3′-hydroxy-4′-oxo-6′,7′-dihydro-4′H-spiro[piperidine-4,9′-pyrimido[2,1-c][1,4]oxazine]-1-carboxylate] | 1 to 10 | 1 to 10
17 | CN(C)C(=O)C(=O)N1CCC2(CC1)OCCn1c2nc(C(=O)NCc2ccc(F)cc2)c(O)c1=O [Example 30, 1-(2-(Dimethylamino)-2-oxoacetyl)-N-(4-fluorobenzyl)-3′-hydroxy-4′-oxo-6′,7′-dihydro-4′H-spiro[piperidine-4,9′-pyrimido[2,1-c][1,4]oxazine]-2′-carboxamide] | 10 to 100 | 1 to 10
18 | Cc1ncnn1-c1cc(F)ccc1CNC(=O)c1nc2n(c(=O)c1O)CCOC21CCN(C(=O)C(=O)N(C)C)C1 (stereo not shown) [Example 41, 1′-(2-(Dimethylamino)-2-oxoacetyl)-N-(4-fluoro-2-(5-methyl-1H-1,2,4-triazol-1-yl)benzyl)-3-hydroxy-4-oxo-6,7-dihydro-4H-spiro[pyrimido[2,1-c][1,4]oxazine-9,3′-pyrrolidine]-2-carboxamide] | > 100 | 10 to 100

Row | Compound | EC50 [1] [nM] | IC50 [2] [nM]
19 | COC(=O)N1CCC2(CC1)OCCn1c2nc(C(=O)NCc2ccc(F)cc2-n2cncn2)c(O)c1=O [Example 3] | 1 to 10 | 1 to 10
20 | COC(=O)C(=O)N1CCC2(CC1)OCCn1c2nc(C(=O)NCc2ccc(F)cc2)c(O)c1=O [Example 28, Methyl 2-(2′-(4-fluorobenzylcarbamoyl)-3′-hydroxy-4′-oxo-6′,7′-dihydro-4′H-spiro[piperidine-4,9′-pyrimido[2,1-c][1,4]oxazine]-1-yl)-2-oxoacetate] | 10 to 100 | 1 to 10
21 | O=C(NCc1ccc(F)cc1)c1nc2n(c(=O)c1O)CCOC21CCN(C(=O)OCc2ccccc2)C1 (stereo not shown) [Example 36, Benzyl 2-(4-fluorobenzylcarbamoyl)-3-hydroxy-4-oxo-6,7-dihydro-4H-spiro[pyrimido[2,1-c][1,4]oxazine-9,3′-pyrrolidine]-1′-carboxylate] | 1 to 10 | 1 to 10
22 | Cc1ncnn1-c1cc(F)ccc1CNC(=O)c1nc2n(c(=O)c1O)CCOC21CCN(C(=O)OCc2ccccc2)CC1 [Example 23] | 1 to 10 | 10 to 100
23 | COC(=O)N1CCC2(CC1)OCCn1c2nc(C(=O)NCc2ccc(F)cc2)c(O)c1=O [Example 4] | 1 to 10 | 1 to 10
24 | Cc1ccc(F)cc1S(=O)(=O)N1CCC2(CC1)OCCn1c2nc(C(=O)NCc2ccc(F)cc2)c(O)c1=O [Example 18] | 1 to 10 | 1 to 10
25 | Cc1ccc(S(=O)(=O)N2CCC3(CC2)OCCn2c3nc(C(=O)NCc3ccc(F)cc3-n3cncn3)c(O)c2=O)cc1 [Example 11] | 1 to 10 | 1 to 10
26 | CN(C)C(=O)N1CCC2(CC1)OCCn1c2nc(C(=O)NCc2ccc(F)cc2-n2cncn2)c(O)c1=O [Example 5] | 1 to 10 | 1 to 10
27 | CC1CN(S(=O)(=O)c2cc(F)ccc2CNC(=O)c2nc3n(c(=O)c2O)CCCOC32CCN(C(=O)OCc3ccccc3)CC2)CC(C)N1 (stereo not shown) [Example 49] | 10 to 100 | 10 to 100
28 | CS(=O)(=O)N1CCC2(C1)OCCn1c2nc(C(=O)NCc2ccc(F)cc2)c(O)c1=O (stereo not shown) [Example 38, N-(4-Fluorobenzyl)-3-hydroxy-1′-(methylsulfonyl)-4-oxo-6,7-dihydro-4H-spiro[pyrimido[2,1-c][1,4]oxazine-9,3′-pyrrolidine]-2-carboxamide] | 10 to 100 | 1 to 10
29 | Cc1ccc(S(=O)(=O)N2CCC3(CC2)OCCn2c3nc(C(=O)NCc3ccc(F)cc3)c(O)c2=O)cc1 [Example 12] | 1 to 10 | 10 to 100
30 | CN(C)C(=O)C(=O)N1CCC2(C1)OCCn1c2nc(C(=O)NCc2ccc(F)cc2)c(O)c1=O (stereo not shown) [Example 40, 1′-(2-(Dimethylamino)-2-oxoacetyl)-N-(4-fluorobenzyl)-3-hydroxy-4-oxo-6,7-dihydro-4H-spiro[pyrimido[2,1-c][1,4]oxazine-9, 3′-pyrrolidine]-2-carboxamide] | 10 to 100 | 1 to 10
31 | Cc1ncn(-c2cc(F)ccc2CNC(=O)c2nc3n(c(=O)c2O)CCOC32CCN(C(=O)C(=O)N(C)C)CC2)n1 [Example 32, 1-(2-(Dimethylamino)-2-oxoacetyl)-N-(4-fluoro-2-(3-methyl-1H-1,2,4-triazol-1-yl)benzyl)-3′-hydroxy-4′-oxo-6′,7′-dihydro-4′H-spiro[piperidine-4,9′-pyrimido[2,1-c][1,4]oxazine]-2′-carboxamide] | > 100 | 10 to 100
32 | CN(C)S(=O)(=O)N1CCC2(CC1)OCCn1c2nc(C(=O)NCc2ccc(F)cc2-n2cncn2)c(O)c1=O [Example 1, 1-(N,N-Dimethylsulfamoyl)-N-(4-fluoro-2-(1H-1,2,4-triazol-1-yl)benzyl)-3′-hydroxy-4′-oxo-6′,7′-dihydro-4′H-spiro[piperidine-4,9′-pyrimido[2,1-c][1,4]oxazine]-2′-carboxamide] | 1 to 10 | 1 to 10
33 | Cc1ccc(F)cc1S(=O)(=O)N1CCC2(CC1)OCCn1c2nc(C(=O)NCc2ccc(F)cc2-n2cncn2)c(O)c1=O [Example 19] | 1 to 10 | 1 to 10
34 | COC(=O)C(=O)N1CCC2(CC1)OCCn1c2nc(C(=O)NCc2ccc(F)cc2-n2ncnc2C)c(O)c1=O [Example 26, Methyl 2-(2′-(4-fluoro-2-(5-methyl-1H-1,2,4-triazol-1-yl)benzylcarbamoyl)-3′-hydroxy-4′-oxo-6′,7′-dihydro-4′H-spiro[piperidine-4,9′-pyrimido[2,1-c][1,4]oxazine]-1-yl)-2-oxoacetate] | 10 to 100 | 10 to 100
35 | O=C(NCc1ccc(F)cc1-n1cncn1)c1nc2n(c(=O)c1O)CCOC21CCN(C(=O)c2ccccc2)CC1 [Example 9] | 1 to 10 | 10 to 100
